pIC50: −log10 of the molar value.

The first experiment deals with T1, Fructose-1,6-bisphosphatase 1 (Homo sapiens) (UniProt P09467).
T1 sequence (whole entry): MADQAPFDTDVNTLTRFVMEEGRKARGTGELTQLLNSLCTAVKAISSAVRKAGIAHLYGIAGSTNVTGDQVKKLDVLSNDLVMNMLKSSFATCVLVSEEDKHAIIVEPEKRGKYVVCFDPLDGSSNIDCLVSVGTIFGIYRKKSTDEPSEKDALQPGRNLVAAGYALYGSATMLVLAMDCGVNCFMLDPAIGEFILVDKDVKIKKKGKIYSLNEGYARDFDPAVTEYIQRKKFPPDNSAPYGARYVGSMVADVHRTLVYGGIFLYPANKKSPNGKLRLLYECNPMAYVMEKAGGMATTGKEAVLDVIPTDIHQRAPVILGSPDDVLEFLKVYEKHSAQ
The experiment is described as follows: Inhibition of human liver FBP1 at 200 uM incubated for 5 mins by fluorescence method relative to control.
In the case of `O=C1C[C@@H](c2ccc(O)cc2)Oc2cc(O)cc(O)c21`, the inhibition (in general, the percentage by which the read-out fell short of the control) is below 20%. Same read-out and setting: as for `COc1ccc(-c2oc3cc(OC)ccc3c(=O)c2O)cc1`, the figure is below 20%; as for `COc1ccc(-c2oc3c(O)c(O)ccc3c(=O)c2O)cc1OC`, 33%.

Compound `O=c1c(Cl)c(-c2ccc(O)c(O)c2)oc2c(Cl)c(O)cc(O)c12` showed an inhibition below 20%.

The compound `O=c1cc(-c2ccc(O)c(O)c2)oc2cccc(O)c12` yielded an inhibition below 20%. Same read-out and setting: as for `O=c1c(O)c(-c2ccc(O)c(O)c2)oc2ccccc12`, the figure is 20%; as for `O=c1c(Cl)c(-c2ccc(O)c(O)c2)oc2cc(O)cc(O)c12`, below 20%. On the same count and under the same terms, the figure for `O=c1c(O)c(-c2ccc(O)c(O)c2)oc2cc(O)cc(O)c12` is below 20%; for `O=c1c(O)c(-c2ccc(O)cc2)oc2cc(O)cc(O)c12` it is below 20%.

Take `O=c1cc(-c2ccc(O)c(O)c2)oc2ccccc12`: the inhibition came to 25%. In turn, `O=c1cc(-c2cccc(O)c2)oc2cccc(O)c12` yielded an inhibition below 20%. With `O=C1c2c(O)cc(O)cc2O[C@H](c2ccc(O)c(O)c2)[C@H]1O`, the inhibition is below 20%. As for `C[C@@H]1O[C@@H](OC[C@H]2O[C@@H](Oc3c(-c4ccc(O)c(O)c4)oc4cc(O)cc(O)c4c3=O)[C@H](O)[C@@H](O)[C@@H]2O)[C@H](O)[C@H](O)[C@H]1O`, the inhibition was below 20%. For `O=c1cc(-c2ccc(O)cc2)oc2cc(O)cc(O)c12`, the inhibition was below 20%. Still for that read-out and setting: the figure for `O=c1cc(-c2ccc(O)cc2)oc2cc(O)ccc12` is below 20%. Turning to `O=c1cc(-c2cccc(O)c2)oc2ccccc12`, the inhibition was below 20%. On to `O=C(O)[C@H]1O[C@@H](Oc2cc3oc(-c4ccccc4)cc(=O)c3c(O)c2O)[C@H](O)[C@@H](O)[C@@H]1O`, for which the inhibition was below 20%. `COc1cc(-c2cc(=O)c3c(O)cc(O)cc3o2)ccc1O` gave an inhibition below 20%.

As for `O=c1c(O)c(-c2cc(O)c(O)c(O)c2)oc2cc(O)cc(O)c12`, the inhibition was below 20%. With `COc1ccc(-c2oc3ccccc3c(=O)c2O)cc1OC`, the inhibition is below 20%. For `O=c1cc(-c2cccc(O)c2)oc2cc(O)ccc12`, the inhibition is below 20%.

`O=c1c(O)c(-c2ccccc2)oc2cc(O)cc(O)c12` had an inhibition below 20%. `Oc1ccc(-c2[o+]c3c(O)c(O)cc(O)c3cc2O)cc1O` came in with an inhibition of 46%.

The compound `O=c1cc(-c2ccc(O)c(O)c2)oc2cc(O)cc(O)c12` had an inhibition of 22%.

The compound `O=c1c(O)c(-c2ccc(O)c(O)c2)oc2cc(O)c(O)c(O)c12` showed an inhibition of 37%.

`O=c1cc(-c2ccc(O)cc2)oc2ccccc12` registered an inhibition below 20%. As to `COc1ccc2c(=O)c(O)c(-c3ccc(OCc4ccccc4)c(OCc4ccccc4)c3)oc2c1OC`, the inhibition was below 20%. Take `O=c1cc(-c2ccc(O)c(O)c2)oc2c(Cl)c(O)cc(O)c12`: the inhibition is below 20%. Consider `COc1cccc(-c2oc3cc(OC)ccc3c(=O)c2O)c1`, for which the inhibition was below 20%. `COc1ccc(-c2cc(=O)c3c(O)cc(O)cc3o2)cc1` yielded an inhibition below 20%. Consider `O=c1cc(-c2ccc(O)cc2)oc2cccc(O)c12`, for which the inhibition was below 20%.

The compound `O=c1c(Cl)c(-c2ccc(O)c(O)c2)oc2c(Cl)c(O)c(Cl)c(O)c12` came in with an inhibition below 20%. In the case of `O=c1cc(-c2ccccc2)oc2c(O)c(O)cc(O)c12`, the inhibition is below 20%. `COc1cc2oc(-c3ccccc3)cc(=O)c2c(O)c1O` yielded an inhibition of 46%. As for `O=C1C[C@@H](c2ccc(O)c(O)c2)Oc2cc(O)cc(O)c21`, the inhibition is below 20%.

With `O=c1cc(-c2ccc(O)c(O)c2)oc2cc(O)ccc12`, the inhibition was below 20%. The compound `O=c1cc(-c2ccccc2)oc2ccccc12` yielded an inhibition below 20%. `O=c1cc(-c2ccc(O)c(O)c2)oc2cc(O)c(Cl)c(O)c12` yielded an inhibition below 20%. The compound `O=c1cc(-c2ccccc2)oc2cccc(O)c12` registered an inhibition below 20%. The same measure, in the same setting: as for `O=c1c(O)c(-c2cccc(O)c2)oc2cc(O)ccc12`, the figure is below 20%; as for `COc1cc2oc(-c3ccccc3)cc(=O)c2c(OC)c1OC`, below 20%. In turn, `O=c1c(O)c(-c2ccc(O)cc2)oc2cc(O)ccc12` yielded an inhibition below 20%.

`COc1ccc2c(=O)c(O)c(-c3ccc(O)c(O)c3)oc2c1OC`: the inhibition is below 20%.

For the compound `O=c1c(O)c(-c2cccc(O)c2)oc2cc(O)cc(O)c12`, the inhibition was below 20%.

For the compound `O=c1cc(-c2ccccc2)oc2cc(O)ccc12`, the inhibition was below 20%. As to `O=c1c(O)c(-c2ccc(O)c(O)c2)oc2c(O[C@@H]3O[C@H](CO)[C@@H](O)[C@H](O)[C@H]3O)c(O)cc(O)c12`, the inhibition is below 20%. With `COc1ccc(-c2oc3c(OCc4ccccc4)c(OCc4ccccc4)ccc3c(=O)c2O)cc1OC`, the inhibition is below 20%. Compound `O=c1cc(-c2ccccc2)oc2cc(O)cc(O)c12` gave an inhibition below 20%. For `O=c1c(O)c(-c2ccc(O)cc2O)oc2cc(O)cc(O)c12`, the inhibition was below 20%. Regarding `O=c1c(O)c(-c2ccc(O)c(O)c2)oc2c(O)c(O)ccc12`, the inhibition was below 20%. Compound `COc1ccc(-c2cc(=O)c3c(O)cc(O)cc3o2)cc1OC` came in with an inhibition below 20%.

A further experiment deals with T2, Fructose-1,6-bisphosphatase 1 (Homo sapiens, UniProt P09467).
T2 sequence (P09467 whole entry): T1 sequence (whole entry)
Briefly: Inhibition of human liver FBP1 incubated for 5 mins by fluorescence method.
Consider `Nc1ncnc2c1ncn2[C@@H]1O[C@H](COP(=O)(O)O)[C@@H](O)[C@H]1O` [ADENOSINE PHOSPHATE], for which the negative logarithm of the IC50 (pIC50) (commonly −log10 of the IC50, conventionally taken in molar units) is 5.59. Take `O=c1cc(-c2ccccc2)oc2cc(O)c(O)c(O)c12` [BAICALEIN]: the pIC50 was 4.54. `O=c1c(O)c(-c2ccc(O)cc2)oc2c(O)c(O)cc(O)c12` [HERBACETIN]: the negative logarithm of the IC50 (pIC50) was 5.06. On to `O=c1cc(-c2ccc(O)cc2)oc2cc(O)c(O)c(O)c12` [SCUTELLAREIN], for which the pIC50 was 4.42. Still for that read-out and setting: as for `O=c1c(O)c(-c2ccc(O)c(O)c2)oc2c(O)c(O)cc(O)c12` [GOSSYPETIN], the figure is 4.62.
